The structures appear in SMILES notation.

The target in this test is T1, human RORγ-LBD (Homo sapiens, UniProt P51449).
T1 construct: made in house; host or cells: E. coli (BL-21)
T1 sequence (P51449 262-518): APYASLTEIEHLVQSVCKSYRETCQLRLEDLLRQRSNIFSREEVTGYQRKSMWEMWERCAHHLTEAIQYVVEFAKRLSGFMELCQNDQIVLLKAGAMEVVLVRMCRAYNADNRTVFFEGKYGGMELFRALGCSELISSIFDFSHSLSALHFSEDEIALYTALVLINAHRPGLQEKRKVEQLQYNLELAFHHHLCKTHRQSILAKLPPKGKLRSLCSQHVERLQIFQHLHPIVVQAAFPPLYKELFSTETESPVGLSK
As to the kind of experiment: ROR gamma coactivator peptide recruitment Alphascreen assay (RORγ-LBD binding to GRIP1 coactivator peptide). Format: biochemical. The conditions noted are these: 5 nM human RORγ-LBD, 30 nM 7-β-hydroxycholesterol, 50 nM biotinylated GRIP1 coactivator peptide, overnight incubation at room temperature; read-out: result (pIC50, RORγ coactivator peptide recruitment Alphascreen assay) (converted). The procedure, abridged:
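His/Flag-tagged human RORγ-LBD (aa 262-518, E. coli-expressed, 5 nM) with agonist 7-β-hydroxycholesterol (30 nM) and biotinylated GRIP1 LXXLL peptide (50 nM) in HEPES pH 7.4 buffer, 2.5% DMSO. Compound 1-in-2 dilutions; Alphascreen bead signal read after overnight incubation at room temperature; pIC50 calculated.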
Background: In Alpha technology, singlet oxygen from a donor bead excites a nearby acceptor bead.
In the case of `CC1(C)CC[C@H](CN(CC(=O)c2c(Cl)cccc2Cl)C(=O)c2cnn([C@H]3CC[C@](C)(C(=O)O)CC3)c2C(F)(F)F)O1` [Example 821, trans-4-(4-((2-(2,6-dichlorophenyl)-2-oxoethyl)(((2R)-5,5-dimethyltetrahydro-2-furanyl)methyl)carbamoyl)-5-(trifluoromethyl)-1H-pyrazol-1-yl)-1-methylcyclohexanecarboxylic acid], the IC50 is 9.77 nM.
Turning to `CC1(CN(CC(=O)c2c(Cl)cncc2Cl)C(=O)c2cnn([C@@H]3CC[C@@H](C(=O)O)C(C)(C)C3)c2C(F)(F)F)CCC1` [Example 824, (1R,4R)-4-(4-((2-(3,5-dichloro-4-pyridinyl)-2-oxoethyl)((1-methylcyclobutyl)methyl)carbamoyl)-5-(trifluoromethyl)-1H-pyrazol-1-yl)-2,2-dimethylcyclohexanecarboxylic acid], the IC50 is 28.8 nM.
Then `CC1(CN(CC(=O)c2c(Cl)cncc2Cl)C(=O)c2cnn([C@H]3CC[C@H](C(=O)O)C(C)(C)C3)c2C(F)(F)F)CCC1` [Example 825, (1S,4S)-4-(4-((2-(3,5-dichloro-4-pyridinyl)-2-oxoethyl)((1-methylcyclobutyl)methyl)carbamoyl)-5-(trifluoromethyl)-1H-pyrazol-1-yl)-2,2-dimethylcyclohexanecarboxylic acid], with 1.38 nM.
In the case of `C[C@@H]1C[C@@H](n2ncc(C(=O)N(CC(=O)c3c(Cl)cncc3Cl)C[C@H]3CCC(C)(C)O3)c2C(F)(F)F)CC[C@@H]1C(=O)O` [Example 826, (1S,2R,4S)-4-(4-((2-(3,5-dichloro-4-pyridinyl)-2-oxoethyl)(((2R)-5,5-dimethyltetrahydro-2-furanyl)methyl)carbamoyl)-5-(trifluoromethyl)-1H-pyrazol-1-yl)-2-methylcyclohexanecarboxylic acid] it was 18.6 nM.
On to `C[C@@H]1C[C@@H](n2ncc(C(=O)N(CC(=O)c3c(Cl)cncc3Cl)CC(C)(C)F)c2C(F)(F)F)CC[C@@H]1C(=O)O` [Example 829, (1S,2R,4S)-4-(4-((2-(3,5-dichloro-4-pyridinyl)-2-oxoethyl)(2-fluoro-2-methylpropyl)carbamoyl)-5-(trifluoromethyl)-1H-pyrazol-1-yl)-2-methylcyclohexanecarboxylic acid], for which the IC50 was 9.55 nM.
In the case of `C[C@@H]1C[C@@H](n2ncc(C(=O)N(CC(=O)c3c(Cl)cncc3Cl)CC3(C(F)(F)F)CC3)c2C(F)(F)F)CC[C@@H]1C(=O)O` [Example 830, (1S,2R,4S)-4-(4-((2-(3,5-dichloro-4-pyridinyl)-2-oxoethyl)((1-(trifluoromethyl)cyclopropyl)methyl)carbamoyl)-5-(trifluoromethyl)-1H-pyrazol-1-yl)-2-methylcyclohexanecarboxylic acid] it was 2.69 nM.
With `C[C@@H]1C[C@@H](n2ncc(C(=O)N(CC(=O)c3c(Cl)cccc3Cl)CC(C)(C)F)c2C(F)(F)F)CC[C@@H]1C(=O)O` [Example 831, (1S,2R,4S)-4-(4-((2-(2,6-dichlorophenyl)-2-oxoethyl)(2-fluoro-2-methylpropyl)carbamoyl)-5-(trifluoromethyl)-1H-pyrazol-1-yl)-2-methylcyclohexanecarboxylic acid], the IC50 was 2.63 nM.
With `CC(C)(F)CN(CC(=O)c1c(Cl)cccc1Cl)C(=O)c1cnn([C@H]2CC[C@](C)(C(=O)O)CC2)c1C(F)(F)F` [Example 832, trans-4-(4-((2-(2,6-dichlorophenyl)-2-oxoethyl)(2-fluoro-2-methylpropyl)carbamoyl)-5-(trifluoromethyl)-1H-pyrazol-1-yl)-1-methylcyclohexanecarboxylic acid], the IC50 is 3.89 nM.
In the case of `Cc1cc(Cl)c(C(=O)CN(CC2CCC(C)(C)CC2)C(=O)c2cnn([C@H]3CC[C@@H](C(=O)O)CC3)c2C(F)(F)F)c(Cl)n1` [Example 833, cis-4-(4-((2-(2,4-dichloro-6-methyl-3-pyridinyl)-2-oxoethyl)((4,4-dimethylcyclohexyl)methyl)carbamoyl)-5-(trifluoromethyl)-1H-pyrazol-1-yl)cyclohexanecarboxylic acid], the IC50 is 5.89 nM.
Then `Cc1cc(Cl)c(C(=O)CN(CC2CCCCC2)C(=O)c2cnn([C@H]3CC[C@@H](C(=O)O)CC3)c2C(F)(F)F)c(Cl)n1` [Example 834, cis-4-(4-((cyclohexylmethyl)(2-(2,4-dichloro-6-methyl-3-pyridinyl)-2-oxoethyl)carbamoyl)-5-(trifluoromethyl)-1H-pyrazol-1-yl)cyclohexanecarboxylic acid], with 10 nM.
As to `Cc1cc(Cl)c(C(=O)CN(CC2CCC(C)(C)CC2)C(=O)c2cnn([C@H]3CC[C@](C)(C(=O)O)CC3)c2C(F)(F)F)c(Cl)n1` [Example 835, trans-4-(4-((2-(2,4-dichloro-6-methyl-3-pyridinyl)-2-oxoethyl)((4,4-dimethylcyclohexyl)methyl)carbamoyl)-5-(trifluoromethyl)-1H-pyrazol-1-yl)-1-methylcyclohexanecarboxylic acid], the IC50 was 251 nM.
Then `CC(C)(C)CN(CC(=O)c1c(Cl)cncc1Cl)C(=O)c1cnn([C@H]2C[C@]3(C[C@H](C(=O)O)C3)C2)c1C(F)(F)F` (stereo partly drawn) [Example 836, (4R/S)-6-(4-((2-(3,5-dichloro-4-pyridinyl)-2-oxoethyl)(2,2-dimethylpropyl)carbamoyl)-5-(trifluoromethyl)-1H-pyrazol-1-yl)spiro[3.3]heptane-2-carboxylic acid], with 30.9 nM.
For `CC1(C)CC[C@@H](CN(CC(=O)c2c(Cl)cccc2Cl)C(=O)c2cnn([C@H]3CC[C@](C)(C(=O)O)CC3)c2C(F)(F)F)O1` [Example 838, trans-4-(4-((2-(2,6-dichlorophenyl)-2-oxoethyl)(((2S)-5,5-dimethyltetrahydro-2-furanyl)methyl)carbamoyl)-5-(trifluoromethyl)-1H-pyrazol-1-yl)-1-methylcyclohexanecarboxylic acid], the IC50 is 13.8 nM.
In the case of `CC1(C)CC[C@H](CN(CC(=O)c2c(Cl)cccc2Cl)C(=O)c2cnn([C@H]3CC[C@](C)(C(=O)O)CC3)c2C(F)(F)F)O1` [Example 839, trans-4-(4-((2-(2,6-dichlorophenyl)-2-oxoethyl)(((2S)-5,5-dimethyltetrahydro-2-furanyl)methyl)carbamoyl)-5-(trifluoromethyl)-1H-pyrazol-1-yl)-1-methylcyclohexanecarboxylic acid], the IC50 is 7.24 nM.
As for `C[C@]1(C(=O)O)CC[C@H](n2ncc(C(=O)N(C[C@H](O)c3c(Cl)cncc3Cl)CC3(F)CC3)c2C(F)(F)F)CC1` [Example 840, trans-4-(4-(((2R)-2-(3,5-dichloro-4-pyridinyl)-2-hydroxyethyl)((1-fluorocyclopropyl)methyl)carbamoyl)-5-(trifluoromethyl)-1H-pyrazol-1-yl)-1-methylcyclohexanecarboxylic acid], the IC50 is 240 nM.
Consider `CC(C)(C)CN(CC(=O)c1c(Cl)cncc1Cl)C(=O)c1cnn([C@H]2CC[C@@H](CS(C)(=O)=O)CC2)c1C(F)(F)F` [Example 841, N-(2-(3,5-dichloro-4-pyridinyl)-2-oxoethyl)-N-(2,2-dimethylpropyl)-1-(cis-4-((methylsulfonyl)methyl)cyclohexyl)-5-(trifluoromethyl)-1H-pyrazole-4-carboxamide], for which the IC50 was 195 nM.
As for `COC1(CN(CC(=O)c2c(Cl)cncc2Cl)C(=O)c2cnn([C@H]3CC[C@](C)(C(=O)O)CC3)c2C(F)(F)F)CC1` [Example 844, trans-4-(4-((2-(3,5-dichloro-4-pyridinyl)-2-oxoethyl)((1-methoxycyclopropyl)methyl)carbamoyl)-5-(trifluoromethyl)-1H-pyrazol-1-yl)-1-methylcyclohexanecarboxylic acid], the IC50 was 30.2 nM.
Regarding `C[C@@H]1C[C@@H](n2ncc(C(=O)N(CC(=O)c3c(Cl)ccc(F)c3Cl)[C@H]3C[C@@H]4[C@H](C3)C4(C)C)c2C(F)(F)F)CC[C@@H]1C(=O)O` [Example 845, (1S,2R,4S)-4-(4-((2-(2,6-dichloro-3-fluorophenyl)-2-oxoethyl)((1R,3r,5S)-6,6-dimethylbicyclo[3.1.0]hexan-3-yl)carbamoyl)-5-(trifluoromethyl)-1H-pyrazol-1-yl)-2-methylcyclohexanecarboxylic acid], the IC50 was 1.45 nM.
Then `CC1(C)[C@@H]2C[C@H](N(CC(=O)c3c(Cl)cccc3Cl)C(=O)c3cnn([C@H]4C[C@@H](CC(=O)O)C4)c3C(F)(F)F)C[C@@H]21` [Example 846, (cis-3-(4-((2-(2,6-dichlorophenyl)-2-oxoethyl)((1R,3r,5S)-6,6-dimethylbicyclo[3.1.0]hex-3-yl)carbamoyl)-5-(trifluoromethyl)-1H-pyrazol-1-yl)cyclobutyl)acetic acid], with 2.4 nM.
For `CC(C)(F)CN(CC(=O)c1c(Cl)cncc1Cl)C(=O)c1cnn([C@H]2C[C@@]3(C[C@H](C(=O)O)C3)C2)c1C(F)(F)F` (stereo partly drawn) [Example 847, (4s)-6-(4-((2-(3,5-dichloro-4-pyridinyl)-2-oxoethyl)(2-fluoro-2-methylpropyl)carbamoyl)-5-(trifluoromethyl)-1H-pyrazol-1-yl)spiro[3.3]heptane-2-carboxylic acid], the IC50 is 21.9 nM.
As for `C[C@@H]1C[C@@H](n2ncc(C(=O)N(CC(=O)c3c(Cl)cccc3Cl)[C@H]3CCC34CCC4)c2C(F)(F)F)CC[C@@H]1C(=O)O` [Example 848, (1S,2R,4S)-4-(4-((2-(2,6-dichlorophenyl)-2-oxoethyl)((1S)-spiro[3.3]hept-1-yl)carbamoyl)-5-(trifluoromethyl)-1H-pyrazol-1-yl)-2-methylcyclohexanecarboxylic acid], the IC50 is 1.32 nM.

(Values after patent publication US9365522B2, “Pyrazole amide derivative” (AMGEN INC., priority 2015, dated 2016).)
